Target: 5HT2A (Homo sapiens, UniProt P28223)
Assay: Receptor Selection and Amplification (R-SAT) functional assay
Assay type: cell-based
Set-up: expressed in transfected cells; host or cells: NIH3T3 cells, pSI mammalian expression vector
Details: NIH3T3 cells; Ki from IC50 by Cheng and Prussoff; read-out: 5-HT2a (pKi) (R-SAT) (converted)
Excerpt: Receptor Selection and Amplification (R-SAT) Assays. […] The IC50 determined in the RSAT assay was converted into a Ki value using the method of Cheng and Prussoff, Biochem Pharmacol., 1973 Dec. 1; 22(23):3099-108. pKi is the negative of the log(Ki).

5HT2A, sequence (P28223 whole entry): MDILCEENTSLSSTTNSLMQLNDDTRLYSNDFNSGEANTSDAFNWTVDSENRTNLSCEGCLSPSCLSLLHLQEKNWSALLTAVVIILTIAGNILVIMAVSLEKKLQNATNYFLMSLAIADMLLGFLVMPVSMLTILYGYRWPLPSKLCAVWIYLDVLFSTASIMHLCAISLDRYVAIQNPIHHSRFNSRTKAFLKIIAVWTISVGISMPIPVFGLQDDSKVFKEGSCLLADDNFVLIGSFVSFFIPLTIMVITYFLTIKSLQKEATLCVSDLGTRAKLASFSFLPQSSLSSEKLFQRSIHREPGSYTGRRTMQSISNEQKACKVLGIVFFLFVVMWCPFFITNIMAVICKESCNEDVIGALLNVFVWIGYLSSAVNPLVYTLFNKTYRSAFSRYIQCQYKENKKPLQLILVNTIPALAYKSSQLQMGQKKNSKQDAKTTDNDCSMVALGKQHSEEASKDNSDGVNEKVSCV

Row | SMILES | Ki [nM]
1 | COc1ccc(CNC(=O)N(Cc2ccc(F)cc2)[C@H]2CCN(C)C[C@H]2F)c(OC)c1 (racemic) [Example 1, 1-[(2,4-dimethoxyphenyl)methyl]-3-[(3R,4S)-3-fluoro-1-methylpiperidin-4-yl]-3-[(4-fluorophenyl)methyl]urea; Trifluoroacetic Acid (1a) and 1-[(2,4-dimethoxyphenyl)methyl]-3-[(3S,4R)-3-fluoro-1-methylpiperidin-4-yl]-3-[(4-fluorophenyl)methyl]urea; Trifluoroacetic Acid (1b)] | 25.1
2 | CN1CCC(N(Cc2ccc(F)cc2F)C(=O)NCc2ccc([C@H](O)CO)cc2)CC1 (racemic) [Example 94, 1-[(2,4-difluorophenyl)methyl]-3-({4-[(1R)-1,2-dihydroxyethyl]phenyl}methyl)-1-(1-methylpiperidin-4-yl)urea; Trifluoroacetic Acid and 1-[(2,4-difluorophenyl)methyl]-3-({4-[(1S)-1,2-dihydroxyethyl]phenyl}methyl)-1-(1-methylpiperidin-4-yl)urea; Trifluoroacetic Acid] | 100
3 | CN1CC[C@@H](N(Cc2ccc(F)cc2F)C(=O)NCc2ccc(OC3CC3)cc2)[C@@H](F)C1 (racemic) [Example 117, 1-[(4-cyclopropoxyphenyl)methyl]-3-[(2,4-difluorophenyl)methyl]-3-[(3S,4R)-3-fluoro-1-methylpiperidin-4-yl]urea and 1-[(4-cyclopropoxyphenyl)methyl]-3-[(2,4-difluorophenyl)methyl]-3-[(3R,4S)-3-fluoro-1-methylpiperidin-4-yl]urea] | 0.398
4 | COc1ccc(CN(C(=O)NCc2ccc(OCC(C)C)cc2)C2CCN(C)CC2)c(OC)c1 [Example 2, 3-[(2,4-dimethoxyphenyl)methyl]-3-(1-methylpiperidin-4-yl)-1-{[4-(2-methylpropoxy)phenyl]methyl}urea] | 3160
5 | CC(C)COc1ccc(CNC(=O)N(Cc2ccc(F)cc2OCc2ccccc2)C2CCN(C)CC2)cc1 [Example 13b, 1-{[2-(benzyloxy)-4-fluorophenyl]methyl}-1-(1-methylpiperidin-4-yl)-3-{[4-(2-methylpropoxy)phenyl]methyl}urea] | 63.1
6 | CN1CCC(N(Cc2ccc(F)cc2F)C(=O)NCc2ccc3ncoc3c2)CC1 [Example 29] | 10
7 | CN1CCC(N(Cc2ccc(F)cc2F)C(=O)NCc2ccc3ocnc3c2)CC1 [Example 30] | 63.1
8 | CN1CCC(N(Cc2ccc(F)cc2F)C(=O)NCc2ccc3c(ccn3C)c2)CC1 [Example 31] | 6.31
9 | CN1CCC(N(Cc2ccc(F)cc2F)C(=O)NCc2ccc3c(c2)N(C)CCO3)CC1 [Example 32] | 7.94
10 | O=C(O)C(F)(F)F.[2H]C([2H])([2H])C(Oc1ccc(CNC(=O)N(Cc2ccc(F)cc2F)C2CCN(C)CC2)cc1)(C([2H])([2H])[2H])C([2H])([2H])[2H] [Example 46] | 0.794
11 | C[C@H](c1ccc(F)cc1F)N(C(=O)NCc1ccc(OC2CC2)cc1)C1CCN(C)CC1 [Example 47] | 126
12 | COc1ccc(CNC(=O)N(Cc2ccc(F)cc2F)C2CCN(C)CC2)cc1C#N [Example 48] | 100
13 | CN1CCC(N(Cc2ccc(F)cc2F)C(=O)NCc2ccc(F)cc2)CC1 [Example 49] | 6.31
14 | COc1ccc(CNC(=O)N(Cc2ccc(F)cc2F)C2CCN(C)CC2)c(OC)c1 [Example 50] | 100
15 | COc1ccc(CNC(=O)N(Cc2ccc(F)cc2F)C2CCN(C)CC2)c(Cl)c1 [Example 51] | 25.1
16 | COc1ccc(CNC(=O)N(Cc2ccc(F)cc2F)C2CCN(C)CC2)c(C(F)(F)F)c1 [Example 53] | 25.1
17 | COc1c(F)ccc(CNC(=O)N(Cc2ccc(F)cc2F)C2CCN(C)CC2)c1F [Example 54] | 7.94
18 | CN1CCC(N(Cc2ccc(F)cc2F)C(=O)NCc2cccc3c2CC(C)(C)O3)CC1 [Example 58] | 158
19 | CN1CCC(N(Cc2ccc(F)cc2F)C(=O)NCc2ccc3c(c2)OC(C)(C)C3)CC1 [Example 59] | 15.8
20 | CC(C)COc1ccc(CNC(=O)N(Cc2cc(F)ccc2F)C2CCN(C)CC2)cc1 [Example 63] | 79.4
21 | CC(C)COc1ccc(CNC(=O)N(Cc2ccc(C(F)(F)F)cc2Cl)C2CCN(C)CC2)cc1 [Example 67] | 79.4

Row | SMILES | Ki [nM]
22 | CC(C)COc1ccc(CNC(=O)N(Cc2ccc(C(F)(F)F)cc2F)C2CCN(C)CC2)cc1 [Example 68] | 20
23 | CC(C)COc1ccc(CNC(=O)N(Cc2ccc(F)cc2N(C)C)C2CCN(C)CC2)cc1 [Example 69] | 631
24 | CC(C)COc1ccc(CNC(=O)N(Cc2cc(F)c(F)cc2F)C2CCN(C)CC2)cc1 [Example 70] | 50.1
25 | CC(C)COc1ccc(CNC(=O)N(Cc2c(F)cc(Cl)cc2F)C2CCN(C)CC2)cc1 [Example 71] | 12.6
26 | CC(C)COc1ccc(CNC(=O)N(Cc2c(F)cccc2F)C2CCN(C)CC2)cc1 [Example 72] | 15.8
27 | [2H]C([2H])([2H])Oc1ccc(CNC(=O)N(Cc2ccc(F)cc2F)C2CCN(C)CC2)cc1 [Example 73, 1-[(2,4-difluorophenyl)methyl]-3-{[4-(^2H3)methoxyphenyl]methyl}-1-(1-methylpiperidin-4-yl)urea] | 6.31
28 | COc1cc(OC(C)C)ccc1CNC(=O)N(Cc1ccc(F)cc1F)C1CCN(C)CC1 [Example 74, 1-[(2,4-difluorophenyl)methyl]-3-{[2-methoxy-4-(propan-2-yloxy)phenyl]methyl}-1-(1-methylpiperidin-4-yl)urea] | 39.8
29 | CN1CCC(N(Cc2ccc(F)cc2F)C(=O)NCc2ccc3[nH]cnc3c2)CC1 [Example 77, 3-[(1H-1,3-benzodiazol-5-yl)methyl]-1-[(2,4-difluorophenyl)methyl]-1-(1-methylpiperidin-4-yl)urea; Trifluoroacetic Acid] | 79.4
30 | CC(C)Oc1ccc(CNC(=O)N(Cc2ccc(F)cc2F)C2CCCN(C)CC2)cc1 (stereo not drawn) [Example 78, 1-[(2,4-difluorophenyl)methyl]-1-(1-methylazepan-4-yl)-3-{[4-(propan-2-yloxy)phenyl]methyl}urea; Trifluoroacetic Acid] | 6.31
31 | CC(C)Oc1ccc(CNC(=O)N(Cc2ccc(F)cc2F)[C@@H]2CCN3CCC[C@H]3C2)cc1 [Example 80, 1-[(7R,8aS)-octahydroindolizin-7-yl]-1-[(2,4-difluorophenyl)methyl]-3-{[4-(propan-2-yloxy)phenyl]methyl}urea; Trifluoroacetic Acid] | 2.51
32 | COc1cc(F)c(F)cc1CN(C(=O)NCc1ccc(OC(C)C)cc1)C1CCNCC1 [Example 83, 3-[(4,5-difluoro-2-methoxyphenyl)methyl]-3-(piperidin-4-yl)-1-{[4-(propan-2-yloxy)phenyl]methyl}urea; Trifluoroacetic Acid] | 158
33 | CC(C)Oc1ccc(CNC(=O)N(Cc2ccc(F)cc2F)[C@H]2C[C@H]3CC[C@@H](C2)N3C)cc1 [Example 84, 3-[(2,4-difluorophenyl)methyl]-3-[(1R,3R,5S)-8-methyl-8-azabicyclo[3.2.1]octan-3-yl]-1-{[4-(propan-2-yloxy)phenyl]methyl}urea; Trifluoroacetic Acid] | 50.1
34 | CC(C)C(C)(O)COc1ccc(CNC(=O)N(Cc2ccc(F)cc2F)C2CCN(C)CC2)cc1 (stereo not drawn) [Example 87, 1-[(2,4-difluorophenyl)methyl]-3-{[4-(2-hydroxy-2,3-dimethylbutoxy)phenyl]methyl}-1-(1-methylpiperidin-4-yl)urea; Trifluoroacetic Acid] | 10
35 | CN1CCC(N(Cc2ccc(F)cc2F)C(=O)NCc2ccc(COCCO)c(F)c2)CC1 [Example 88, 1-[(2,4-difluorophenyl)methyl]-3-({3-fluoro-4-[(2-hydroxyethoxy)methyl]phenyl}methyl)-1-(1-methylpiperidin-4-yl)urea; Trifluoroacetic Acid] | 63.1
36 | CC(C)COc1ccc(CNC(=O)N(Cc2ccc(C(F)(F)F)cc2O)C2CCN(C)CC2)cc1 [Example 90, 1-{[2-hydroxy-4-(trifluoromethyl)phenyl]methyl}-1-(1-methylpiperidin-4-yl)-3-{[4-(2-methylpropoxy)phenyl]methyl}urea; Trifluoroacetic Acid] | 12.6
37 | COc1cc(F)ccc1CN(C(=O)NCc1ccc(OCC(C)C)cc1)C1CCN(C)CC1 [Example 91, 1-[(4-fluoro-2-methoxyphenyl)methyl]-1-(1-methylpiperidin-4-yl)-3-{[4-(2-methylpropoxy)phenyl]methyl}urea; Trifluoroacetic Acid] | 15.8
38 | CN1CCC(N(Cc2ccc(F)cc2F)C(=O)NCc2ccc3[nH]ncc3c2)CC1 [Example 93, 1-[(2,4-difluorophenyl)methyl]-3-[(1H-indazol-5-yl)methyl]-1-(1-methylpiperidin-4-yl)urea; Trifluoroacetic Acid] | 39.8
39 | COCCCOc1ccc(CNC(=O)N(Cc2ccc(F)cc2F)C2CCN(C)CC2)cc1 [Example 96, 1-[(2,4-difluorophenyl)methyl]-3-{[4-(3-methoxypropoxy)phenyl]methyl}-1-(1-methylpiperidin-4-yl)urea; Trifluoroacetic Acid] | 10
40 | CN1CCC(N(Cc2ccc(F)cc2F)C(=O)NCc2ccc([N+](=O)[O-])cc2F)CC1 [Example 97, 1-[(2,4-difluorophenyl)methyl]-3-[(2-fluoro-4-nitrophenyl)methyl]-1-(1-methylpiperidin-4-yl)urea; Trifluoroacetic Acid] | 39.8
41 | CN1CCC(N(Cc2ccc(F)cc2F)C(=O)NCc2ccc(F)cc2OC(F)(F)F)CC1 [Example 99, 1-[(2,4-difluorophenyl)methyl]-3-{[4-fluoro-2-(trifluoromethoxy)phenyl]methyl}-1-(1-methylpiperidin-4-yl)urea; Trifluoroacetic Acid] | 79.4
42 | CN1CCC(N(Cc2ccc(F)cc2)C(=O)NCc2ccc(F)cc2F)CC1 [Example 100, 3-[(2,4-difluorophenyl)methyl]-1-[(4-fluorophenyl)methyl]-1-(1-methylpiperidin-4-yl)urea; Trifluoroacetic Acid] | 20

— patent US12139477B2, “Compounds, salts thereof and methods for treatment of diseases” (ACADIA PHARMACEUTICALS INC., priority 2017, dated 2024)
